Reference: patent publication US20130165464A1, “HETEROARYLS AND USES THEREOF” (MILLENNIUM PHARMACEUTICALS, INC., priority 2011, published 2013)

Molecular target: T1, VPS34 (Homo sapiens, UniProt Q8NEB9)
T1 construct: GST (N); host or cells: SF9 insect cells (baculovirus)
Assay: Human VPS34 enzyme assay (Adapta TR-FRET)
Assay type: biochemical
Conditions: for inhibition at 1.11 µM: 1 h, at a 1.11 μM concentration, read-out: VPS34 Percent Inhibition
Description: VPS34 (accession number GB:BCO33004) was cloned into pDEST20-Thombin as N-terminal GST tagged fusion proteins using the Gateway system (Invitrogen, catalog#11804-013). The sequences were verified before recombinant protein expression using the Baculovirus Expression System with Gateway® Technology.
For expression VPS34 was infected at 1MOI in SF9 cells and harvested 72 hours post infection.
For purification, VPS34 is purified by Glutathione Sepharose 4 Fast Flow (GE Healthcare #17-5132-03) followed by HiTrap Q (GE Healthcare #17-1153-01).
Human VPS34 Enzyme Assay Method
100 nL compounds in DMSO are added to wells of a 384 well microtitre plate (Greiner 780076). At room temperature: 5 ul VPS34 reaction buffer (Invitrogen Assay Buffer Q (diluted 1 in 5 with nanopure water) plus 2 mM DTT and 2 mM MnCl2) containing ATP (20 uM, Promega) and 200 uM PI-PS substrate (Invitrogen PV5122) is added followed immediately by 5 ul VPS34 reaction buffer (as above) containing VPS34 (5 nM, Millennium Protein Sciences Group) and the mixture is incubated with shaking at room temperature for 1 hour. Then 5 ul VPS34 stop-detect mix (as per Invitrogen Adapta Assay kit (PV5009) instructions (contains kinase quench buffer, TR-FRET buffer, Adapta Eu anti-ADP antibody and Alexa Fluor 647 ADP tracer)) is added to quench the reaction. The plates are then incubated for 30 minutes at room temperature with shaking and then read on a BMG PheraStar Plus reader.
For the assay methods described above, test compound percent inhibition, at various concentrations, is calculated relative to control (DMSO and EDTA) treated samples. Compound concentration versus percent inhibition curves are fitted to generate IC50 values. One skilled in the art will appreciate that the values generated either as percentage inhibition at a single concentration or IC50 values are subject to experimental variation.

T1 sequence (Q8NEB9 whole entry): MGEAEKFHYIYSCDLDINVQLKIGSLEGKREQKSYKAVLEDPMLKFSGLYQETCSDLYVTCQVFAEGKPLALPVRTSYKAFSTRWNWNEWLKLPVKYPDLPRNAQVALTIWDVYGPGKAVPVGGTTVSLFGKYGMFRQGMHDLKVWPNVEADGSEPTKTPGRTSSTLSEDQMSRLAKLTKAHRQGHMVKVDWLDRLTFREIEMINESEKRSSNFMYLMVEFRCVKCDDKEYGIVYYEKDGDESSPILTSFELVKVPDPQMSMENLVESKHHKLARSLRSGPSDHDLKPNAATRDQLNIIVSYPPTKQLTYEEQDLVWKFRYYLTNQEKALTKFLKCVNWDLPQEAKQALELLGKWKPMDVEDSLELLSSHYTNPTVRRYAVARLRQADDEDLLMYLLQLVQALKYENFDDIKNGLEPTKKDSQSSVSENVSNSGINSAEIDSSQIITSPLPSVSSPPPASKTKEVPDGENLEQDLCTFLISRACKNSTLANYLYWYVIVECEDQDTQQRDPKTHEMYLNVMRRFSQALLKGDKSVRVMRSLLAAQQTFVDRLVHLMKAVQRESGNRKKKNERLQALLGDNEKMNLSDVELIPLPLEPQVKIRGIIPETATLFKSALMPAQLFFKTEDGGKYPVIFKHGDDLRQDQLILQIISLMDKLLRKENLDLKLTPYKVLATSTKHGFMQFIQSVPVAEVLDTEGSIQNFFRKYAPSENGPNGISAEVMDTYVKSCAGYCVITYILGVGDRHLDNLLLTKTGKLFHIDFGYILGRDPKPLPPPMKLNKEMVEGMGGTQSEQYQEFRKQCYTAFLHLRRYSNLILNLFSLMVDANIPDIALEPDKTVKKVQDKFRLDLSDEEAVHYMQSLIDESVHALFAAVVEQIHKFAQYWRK

inhibition at 1.11 µM [%] | IC50 [nM] | Compound
> 99 |  | Cc1cnc(NC(=O)OC2CCCCC2)cc1-n1cc(-c2nc[nH]n2)c(-c2ccccc2Cl)c1 [I-73, cyclohexyl {4-[3-(2-chlorophenyl)-4-(1H-1,2,4-triazol-3-yl)-1H-pyrrol-1-yl]-5-methylpyridin-2-yl}carbamate]
> 99 |  | COC(=O)Nc1cc(-n2cc(-c3nc[nH]n3)c(-c3ccccc3Cl)n2)c(C)cn1 [I-45, methyl {4-[3-(2-chlorophenyl)-4-(4H-1,2,4-triazol-3-yl)-1H-pyrazol-1-yl]-5-methylpyridin-2-yl}carbamate]
> 99 | < 50 | CC(=O)Nc1cc(-n2cc(-c3ccn[nH]3)c(-c3ccccc3Cl)n2)ccn1 [I-25, N-{4-[3′-(2-chlorophenyl)-1H,1′H-3,4′-bipyrazol-1′-yl]pyridin-2-yl}acetamide]
> 99 |  | CC(=O)Nc1cc(-n2cc(-c3nc[nH]n3)c(-c3ccccc3C(F)(F)F)n2)c(C)cn1 [I-48, N-(5-methyl-4-{4-(1H-1,2,4-triazol-3-yl)-3-[2-(trifluoromethyl)phenyl]-1H-pyrazol-1-yl}pyridin-2-yl)acetamide]
> 99 | < 50 | COCCOC(=O)Nc1cc(-n2cc(-c3nc[nH]n3)c(-c3ccccc3Cl)c2)c(C)cn1 [I-78, 2-methoxyethyl {4-[3-(2-chlorophenyl)-4-(1H-1,2,4-triazol-3-yl)-1H-pyrrol-1-yl]-5-methylpyridin-2-yl}carbamate]
97 | < 50 | COC(=O)Nc1cc(-n2cc(-c3ncc[nH]3)c(-c3ccccc3Cl)c2)c(C)cn1 [I-109, methyl {4-[3-(2-chlorophenyl)-4-(1H-imidazol-2-yl)-1H-pyrrol-1-yl]-5-methylpyridin-2-yl}carbamate]
> 99 | < 50 | CC(=O)Nc1cc(-n2cc(-c3nc[nH]n3)c(-c3ccccc3Cl)n2)c(C)cn1 [I-5, N-{4-[3-(2-chlorophenyl)-4-(1H-1,2,4-triazol-3-yl)-1H-pyrazol-1-yl]-5-methylpyridin-2-yl}acetamide]
29 | 1000 to 5000 | CC(=O)Nc1cc(-n2cc(-c3ccccc3Cl)c(C(N)=O)n2)ccn1 [I-20, 1-(2-acetamidopyridin-4-yl)-4-(2-chlorophenyl)-1H-pyrazole-3-carboxamide]
> 99 |  | COCCC(=O)Nc1cc(-n2cc(-c3nc[nH]n3)c(-c3ccccc3Cl)c2)c(C)cn1 [I-74, N-{4-[3-(2-chlorophenyl)-4-(1H-1,2,4-triazol-3-yl)-1H-pyrrol-1-yl]-5-methylpyridin-2-yl}-3-methoxypropanamide]
89 | 150 to 1000 | CC(=O)Nc1cc(-n2cc(-c3nc[nH]n3)c(-c3ccc(C(F)(F)F)cc3Cl)n2)c(C)cn1 [I-66, N-(4-{3-[2-chloro-4-(trifluoromethyl)phenyl]-4-(1H-1,2,4-triazol-3-yl)-1H-pyrazol-1-yl}-5-methylpyridin-2-yl)acetamide]
14 | 1000 to 5000 | O=C(O)c1cn(-c2ccnc(NCCc3ccccc3)n2)nc1-c1ccccc1Cl [I-30, 3-(2-chlorophenyl)-1-{2-[(2-phenylethyl)amino]pyrimidin-4-yl}-1H-pyrazole-4-carboxylic acid]
54 | 150 to 1000 | CC(=O)Nc1cc(-n2cc(-c3cccc(N)n3)c(-c3ccccc3Cl)n2)c(C)cn1 [I-107, N-{4-[4-(6-aminopyridin-2-yl)-3-(2-chlorophenyl)-1H-pyrazol-1-yl]-5-methylpyridin-2-yl}acetamide]
> 99 | < 50 | CCC(=O)Nc1cc(-n2cc(C(N)=O)c(-c3ccccc3Cl)c2)c(C)cn1 [I-28, 4-(2-chlorophenyl)-1-[5-methyl-2-(propionylamino)pyridin-4-yl]-1H-pyrrole-3-carboxamide]
59 | 150 to 1000 | CC(=O)Nc1cc(-n2cc(-c3nnc[nH]3)c(I)n2)c(C)cn1 [I-62, N-{4-[3-iodo-4-(1H-1,2,4-triazol-3-yl)-1H-pyrazol-1-yl]-5-methylpyridin-2-yl}acetamide]
89 | 150 to 1000 | CC(=O)Nc1cc(-n2cc(-c3nc[nH]n3)c(-c3ccccc3Cl)n2)c(Br)cn1 [I-18, N-{5-bromo-4-[3-(2-chlorophenyl)-4-(1H-1,2,4-triazol-3-yl)-1H-pyrazol-1-yl]pyridin-2-yl}acetamide]
> 99 |  | Cc1cnc(NC(=O)C2CC2)cc1-n1cc(-c2ncc[nH]2)c(-c2ccccc2Cl)c1 [I-82, N-{4-[3-(2-chlorophenyl)-4-(1H-imidazol-2-yl)-1H-pyrrol-1-yl]-5-methylpyridin-2-yl}cyclopropanecarboxamide]
> 99 | < 50 | O=C(Nc1cc(-n2cc(-c3nc[nH]n3)c(-c3ccccc3Cl)n2)c(F)cn1)C1CC1 [I-56, N-{4-[3-(2-chlorophenyl)-4-(1H-1,2,4-triazol-3-yl)-1H-pyrazol-1-yl]-5-fluoropyridin-2-yl}cyclopropanecarboxamide]
> 99 | < 50 | CC(=O)Nc1cc(-n2cc(-c3nc[nH]n3)c(-c3ccccc3Cl)n2)c(F)cn1 [I-44, N-{4-[3-(2-chlorophenyl)-4-(1H-1,2,4-triazol-3-yl)-1H-pyrazol-1-yl]-5-fluoropyridin-2-yl}acetamide]
62 | 150 to 1000 | Cc1cnc(NC(=O)C2CC2)cc1-n1cc(CO)c(-c2ccccc2Cl)n1 [I-63, N-{4-[3-(2-chlorophenyl)-4-(hydroxymethyl)-1H-pyrazol-1-yl]-5-methylpyridin-2-yl}cyclopropanecarboxamide]
> 99 | < 50 | Cc1cnc(NC(=O)OCCF)cc1-n1cc(-c2nc[nH]n2)c(-c2ccccc2Cl)c1 [I-81, 2-fluoroethyl {4-[3-(2-chlorophenyl)-4-(1H-1,2,4-triazol-3-yl)-1H-pyrrol-1-yl]-5-methylpyridin-2-yl}carbamate]
23 | 1000 to 5000 | CC(=O)Nc1cc(-n2cc(-c3nc[nH]n3)c(-c3cc(CN(C)C)ccc3Cl)c2)c(C)cn1 [I-76, N-{4-[3-{2-chloro-5-[(dimethylamino)methyl]phenyl}-4-(1H-1,2,4-triazol-3-yl)-1H-pyrrol-1-yl]-5-methylpyridin-2-yl}acetamide]
> 99 | < 50 | COC(=O)Nc1cc(-n2cc(C(N)=O)c(-c3ccccc3Cl)c2)c(C)cn1 [I-36, methyl {4-[3-carbamoyl-4-(2-chlorophenyl)-1H-pyrrol-1-yl]-5-methylpyridin-2-yl}carbamate]
> 99 | < 50 | Cc1cnc(NC(=O)C2CC2)cc1-n1cc(-c2ncc[nH]2)c(-c2ccccc2Cl)n1 [I-60, N-{4-[3-(2-chlorophenyl)-4-(1H-imidazol-2-yl)-1H-pyrazol-1-yl]-5-methylpyridin-2-yl}cyclopropanecarboxamide]
> 99 | < 50 | Cc1cnc(NC(=O)C2CC2)cc1-n1cc(-c2nc[nH]n2)c(-c2ccccc2Cl)n1 [I-46, N-{4-[3-(2-chlorophenyl)-4-(1H-1,2,4-triazol-3-yl)-1H-pyrazol-1-yl]-5-methylpyridin-2-yl}cyclopropanecarboxamide]
> 99 |  | CCOc1ccc(-c2nn(-c3cc(NC(C)=O)ncc3C)cc2-c2nc[nH]n2)c(Cl)c1 [I-68, N-{4-[3-(2-chloro-4-ethoxyphenyl)-4-(1H-1,2,4-triazol-3-yl)-1H-pyrazol-1-yl]-5-methylpyridin-2-yl}acetamide]
> 99 |  | COCCC(=O)Nc1cc(-n2cc(C(N)=O)c(-c3ccccc3Cl)c2)c(C)cn1 [I-79, 4-(2-chlorophenyl)-1-{2-[(3-methoxypropanoyl)amino]-5-methylpyridin-4-yl}-1H-pyrrole-3-carboxamide]
> 99 | < 50 | CC(=O)Nc1cc(-n2cc(C(N)=O)c(-c3ccccc3Cl)c2)ccn1 [I-2, 1-(2-acetamidopyridin-4-yl)-4-(2-chlorophenyl)-1H-pyrrole-3-carboxamide]
15 | 1000 to 5000 | Cc1cnc(N)cc1-n1cc(C(N)=O)c(-c2cc(CN3CCCC3)ccc2Cl)c1 [I-75, 1-(2-amino-5-methylpyridin-4-yl)-4-[2-chloro-5-(pyrrolidin-1-ylmethyl)phenyl]-1H-pyrrole-3-carboxamide]
> 99 | < 50 | Cc1cnc(NC(=O)C2CC2)cc1-n1cc(-c2nc[nH]n2)c(-c2cc(CN3CCCC3)ccc2Cl)c1 [I-84, N-(4-{3-[2-chloro-5-(pyrrolidin-1-ylmethyl)phenyl]-4-(1H-1,2,4-triazol-3-yl)-1H-pyrrol-1-yl}-5-methylpyridin-2-yl)cyclopropanecarboxamide]
